Experiments:
[1] = target: T1, epitope-tagged (histidine6) recombinant MKP-1 (Homo sapiens, UniProt P28562); experiment: MKP-1 phosphatase inhibition; type: biochemical
T1 sequence (P28562 1-367): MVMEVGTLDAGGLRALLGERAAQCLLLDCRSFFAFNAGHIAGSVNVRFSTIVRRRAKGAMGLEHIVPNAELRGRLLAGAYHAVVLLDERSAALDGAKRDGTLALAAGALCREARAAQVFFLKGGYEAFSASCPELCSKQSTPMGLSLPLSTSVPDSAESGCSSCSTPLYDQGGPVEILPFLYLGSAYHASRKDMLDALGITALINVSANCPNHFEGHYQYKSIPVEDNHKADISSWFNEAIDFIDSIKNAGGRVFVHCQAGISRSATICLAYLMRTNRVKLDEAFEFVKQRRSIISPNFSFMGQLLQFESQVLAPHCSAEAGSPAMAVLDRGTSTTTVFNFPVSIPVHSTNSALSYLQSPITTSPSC

[2] = target: T2, epitope-tagged (histidine6) catalytic domain of human recombinant Cdc25B (Homo sapiens, UniProt P30305); experiment: Cdc25B phosphatase inhibition, catalytic domain; type: biochemical; settings: for Cdc25B activity in words: structure-activity discussion; for selectivity for Cdc25B as opposed to MKP-1 and MKP-3, in words: comparison of Cdc25B, MKP-1, MKP-3 assays
T2 sequence (P30305 275-539 isoform P30305-3): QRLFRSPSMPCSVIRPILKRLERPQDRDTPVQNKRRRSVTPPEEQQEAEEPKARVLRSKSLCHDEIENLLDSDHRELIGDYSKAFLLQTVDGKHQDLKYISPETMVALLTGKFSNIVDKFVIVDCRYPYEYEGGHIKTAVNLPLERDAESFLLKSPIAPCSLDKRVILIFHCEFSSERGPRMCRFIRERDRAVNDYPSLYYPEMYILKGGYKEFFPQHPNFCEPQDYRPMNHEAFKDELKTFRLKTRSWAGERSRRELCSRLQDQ

| SMILES | IC50 [1] | Cdc25B activity in words [2] | selectivity for Cdc25B as opposed to MKP-1 and MKP-3, in words [2] |
| --- | --- | --- | --- |
| O=C1c2cc3c(cc2C(=O)C2OC12)CCCC3 (centres unmarked) [Compound 8] | > 50 µM |  |  |
| O=C1c2ccccc2C(=O)c2ccccc21 [Compound 12, 9,10-anthraquinone] | > 50 µM |  |  |
| O=C1C=C(NCCO)C(=O)c2ccccc21 [Compound 18] | > 50 µM | complete loss of activity |  |
| O=C1C2=C(C(=O)c3ccccc31)S(=O)(=O)CCN2 [Compound 16] |  |  | moderately selective for Cdc25B |
| O=C1C=CC(=O)C=C1 [Compound 10, 1,4-benzoquinone] | > 50 µM | complete loss of enzyme activity |  |
| CCOC1=CC(=O)C(=O)c2ccccc21 [Compound 20] |  |  | relatively non-selective |
| CC1=C(NCCO)C(=O)c2ccccc2C1=O [Compound 19] | > 50 µM | complete loss of activity |  |
| O=C1C2=C(C(=O)c3c(O)cccc31)S(=O)(=O)CCN2 [Compound 17] |  |  | moderately selective for Cdc25B |
